# Test results as given in PubChem BioAssay (NCI).
#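 Grown in 96-well plates, cells were treated for 48 hours with each compound at five concentrations. Insufficient inhibition: endpoint recorded as highest concentration tested. The concentration for 50% growth inhibition is given as GI50. TGI: concentration producing complete growth inhibition.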
# Key:
# Assay in all cases: NCI tumour cell line growth inhibition, 48 h
# HCC-2998 colon = system: HCC-2998 colon
# OVCAR-4 ovarian = system: OVCAR-4 ovarian
# ACHN renal = system: ACHN renal
# LOX IMVI melanoma = system: LOX IMVI melanoma
# RPMI-8226 leukemia = system: RPMI-8226 leukemia
# MCF7 breast = system: MCF7 breast
# OVCAR-8 ovarian = system: OVCAR-8 ovarian
# UACC-62 melanoma = system: UACC-62 melanoma
# SK-MEL-2 melanoma = system: SK-MEL-2 melanoma
# 786-0 renal = system: 786-0 renal
# K-562 leukemia = system: K-562 leukemia
# NCI/ADR-RES ovarian = system: NCI/ADR-RES ovarian
# SNB-19 CNS = system: SNB-19 CNS
# CCRF-CEM leukemia = system: CCRF-CEM leukemia
# UO-31 renal = system: UO-31 renal
# EKVX NSCLC = system: EKVX NSCLC
# M14 melanoma = system: M14 melanoma
# SF-268 CNS = system: SF-268 CNS
# HOP-62 NSCLC = system: HOP-62 NSCLC
# CAKI-1 renal = system: CAKI-1 renal
# SW-620 colon = system: SW-620 colon
# MDA-MB-231 breast = system: MDA-MB-231 breast
# HCT-15 colon = system: HCT-15 colon
# DU-145 prostate = system: DU-145 prostate
# KM12 colon = system: KM12 colon
# IGROV1 ovarian = system: IGROV1 ovarian
# OVCAR-3 ovarian = system: OVCAR-3 ovarian
# NCI-H226 lung = system: NCI-H226 lung
# SK-OV-3 ovarian = system: SK-OV-3 ovarian
# SF-295 CNS = system: SF-295 CNS
# MOLT-4 leukemia = system: MOLT-4 leukemia
# UACC-257 melanoma = system: UACC-257 melanoma
# BT-549 breast = system: BT-549 breast
# NCI-H23 lung = system: NCI-H23 lung
# NCI-H460 lung = system: NCI-H460 lung
# A549 NSCLC = system: A549 NSCLC
# U251 CNS = system: U251 CNS
# HT29 colon = system: HT29 colon
# HOP-92 NSCLC = system: HOP-92 NSCLC
# MDA-MB-435 = system: MDA-MB-435
# COLO 205 colon = system: COLO 205 colon
# SF-539 CNS = system: SF-539 CNS
# OVCAR-5 ovarian = system: OVCAR-5 ovarian
# SNB-75 CNS = system: SNB-75 CNS
# TK-10 renal = system: TK-10 renal
# SR leukemia = system: SR leukemia
# SN12C renal = system: SN12C renal
# T-47D breast = system: T-47D breast
# MALME-3M melanoma = system: MALME-3M melanoma
# HL-60(TB) leukemia = system: HL-60(TB) leukemia
# RXF 393 renal = system: RXF 393 renal
# HCT-116 colon = system: HCT-116 colon
# PC-3 prostate = system: PC-3 prostate
# A498 renal = system: A498 renal
structure (smiles),measurement,setting,value
COc1ccc2c(c1)c(-c1nonc1-c1cn(C)c3ccccc13)cn2C,GI50,HCC-2998 colon,1110 nM
same,TGI,HCC-2998 colon,> 100000 nM
same,GI50,OVCAR-4 ovarian,1680 nM
same,TGI,OVCAR-4 ovarian,> 100000 nM
same,GI50,ACHN renal,621 nM
same,TGI,ACHN renal,> 100000 nM
same,GI50,LOX IMVI melanoma,588 nM
same,TGI,LOX IMVI melanoma,> 100000 nM
same,GI50,RPMI-8226 leukemia,634 nM
same,TGI,RPMI-8226 leukemia,> 100000 nM
same,GI50,MCF7 breast,364 nM
same,TGI,MCF7 breast,> 100000 nM
same,GI50,OVCAR-8 ovarian,570 nM
same,TGI,OVCAR-8 ovarian,> 100000 nM
same,GI50,UACC-62 melanoma,493 nM
same,TGI,UACC-62 melanoma,> 100000 nM
same,GI50,SK-MEL-2 melanoma,554 nM
same,TGI,SK-MEL-2 melanoma,> 100000 nM
same,GI50,786-0 renal,628 nM
same,TGI,786-0 renal,> 100000 nM
same,GI50,K-562 leukemia,300 nM
same,TGI,K-562 leukemia,> 100000 nM
same,GI50,NCI/ADR-RES ovarian,408 nM
same,TGI,NCI/ADR-RES ovarian,> 100000 nM
same,GI50,SNB-19 CNS,556 nM
same,TGI,SNB-19 CNS,> 100000 nM
same,GI50,CCRF-CEM leukemia,374 nM
same,TGI,CCRF-CEM leukemia,> 100000 nM
same,GI50,UO-31 renal,430 nM
same,TGI,UO-31 renal,> 100000 nM
same,GI50,EKVX NSCLC,1110 nM
same,TGI,EKVX NSCLC,> 100000 nM
same,GI50,M14 melanoma,373 nM
same,TGI,M14 melanoma,> 100000 nM
same,GI50,SF-268 CNS,1290 nM
same,TGI,SF-268 CNS,> 100000 nM
same,GI50,HOP-62 NSCLC,670 nM
same,TGI,HOP-62 NSCLC,> 100000 nM
same,GI50,CAKI-1 renal,382 nM
same,TGI,CAKI-1 renal,> 100000 nM
same,GI50,SW-620 colon,367 nM
same,TGI,SW-620 colon,> 100000 nM
same,GI50,MDA-MB-231 breast,877 nM
same,TGI,MDA-MB-231 breast,> 100000 nM
same,GI50,HCT-15 colon,456 nM
same,TGI,HCT-15 colon,> 100000 nM
same,GI50,DU-145 prostate,528 nM
same,TGI,DU-145 prostate,> 100000 nM
same,GI50,KM12 colon,414 nM
same,TGI,KM12 colon,> 100000 nM
same,GI50,IGROV1 ovarian,577 nM
same,TGI,IGROV1 ovarian,> 100000 nM
same,GI50,OVCAR-3 ovarian,336 nM
same,TGI,OVCAR-3 ovarian,8750 nM
same,GI50,NCI-H226 lung,998 nM
same,TGI,NCI-H226 lung,> 100000 nM
same,GI50,SK-OV-3 ovarian,536 nM
same,TGI,SK-OV-3 ovarian,> 100000 nM
same,GI50,SF-295 CNS,343 nM
same,TGI,SF-295 CNS,> 100000 nM
same,GI50,MOLT-4 leukemia,668 nM
same,TGI,MOLT-4 leukemia,> 100000 nM
same,GI50,UACC-257 melanoma,463 nM
same,TGI,UACC-257 melanoma,> 100000 nM
same,GI50,BT-549 breast,798 nM
same,TGI,BT-549 breast,> 100000 nM
same,GI50,NCI-H23 lung,996 nM
same,TGI,NCI-H23 lung,> 100000 nM
same,GI50,NCI-H460 lung,403 nM
same,TGI,NCI-H460 lung,> 100000 nM
same,GI50,A549 NSCLC,629 nM
same,TGI,A549 NSCLC,> 100000 nM
same,GI50,U251 CNS,440 nM
same,TGI,U251 CNS,> 100000 nM
same,GI50,HT29 colon,357 nM
same,TGI,HT29 colon,> 100000 nM
same,GI50,HOP-92 NSCLC,890 nM
same,TGI,HOP-92 NSCLC,> 100000 nM
same,GI50,MDA-MB-435,169 nM
same,TGI,MDA-MB-435,554 nM
same,GI50,COLO 205 colon,479 nM
same,TGI,COLO 205 colon,> 100000 nM
same,GI50,SF-539 CNS,312 nM
same,TGI,SF-539 CNS,1530 nM
same,GI50,OVCAR-5 ovarian,1250 nM
same,TGI,OVCAR-5 ovarian,> 100000 nM
same,GI50,SNB-75 CNS,198 nM
same,TGI,SNB-75 CNS,671 nM
same,GI50,TK-10 renal,2260 nM
same,TGI,TK-10 renal,> 100000 nM
same,GI50,SR leukemia,313 nM
same,TGI,SR leukemia,> 100000 nM
same,GI50,SN12C renal,697 nM
same,TGI,SN12C renal,> 100000 nM
same,GI50,T-47D breast,542 nM
same,TGI,T-47D breast,> 100000 nM
same,GI50,MALME-3M melanoma,675 nM
same,TGI,MALME-3M melanoma,> 100000 nM
same,GI50,HL-60(TB) leukemia,340 nM
same,GI50,RXF 393 renal,270 nM
same,TGI,RXF 393 renal,1030 nM
same,GI50,HCT-116 colon,441 nM
same,TGI,HCT-116 colon,> 100000 nM
same,GI50,PC-3 prostate,481 nM
same,TGI,PC-3 prostate,> 100000 nM
same,GI50,A498 renal,332 nM
same,TGI,A498 renal,988 nM
